Reference: patent US20090163515A1, “Compounds Which Bind to the Active Site of Protein Kinase Enzymes” (Biofocus Discovery Ltd., priority 2003, published 2009)

System: ROK
Assay: ROK activity assay
Format: biochemical
Set-up: key: +: active; ++: more active; +++: very active
Details: assays conducted at 1-100 μM

| SMILES | ROK activity |
| --- | --- |
| CC(=O)c1ccc(-c2cnc(NCCc3ccncc3)cn2)s1 [1-{5-[5-(2-Pyridin-4-yl-ethylamino)-pyrazin-2-yl]-thiophen-2-yl}-ethanone] | + |
| OCCC1CCCCN1c1cnc(-c2ccncc2)cn1 (centres unmarked) [2-[1-(5-Pyridin-4-yl-pyrazin-2-yl)-piperidin-2-yl]-ethanol] | + |
| Oc1cccc(Nc2cncc(-c3ccncc3)c2)c1 [3-([3,4′]Bipyridinyl-5-ylamino)-phenol] | ++ |
| Oc1cccc(CNc2cncc(-c3ccncc3)c2)c1 [3-([3,4′]Bipyridinyl-5-ylaminomethyl)-phenol] | ++ |
| CC(C)C(CO)Nc1cnc(-c2ccncc2)cn1 (centres unmarked) [3-Methyl-2-(5-pyridin-4-yl-pyrazin-2-ylamino)-butan-1-ol] | + |
| NC(=O)c1cccc(-c2cncc(NCc3ccc(Cl)c(Cl)c3)c2)c1 [3-[5-(3,4-Dichloro-benzylamino)-pyridin-3-yl]-benzamide] | ++ |
| NC(=O)c1cccc(-c2cncc(NCc3ccc(F)c(F)c3)c2)c1 [3-[5-(3,4-Difluoro-benzylamino)-pyridin-3-yl]-benzamide] | ++ |
| NC(=O)c1cccc(-c2cncc(NCc3cc(O)cc(O)c3)c2)c1 [3-[5-(3,5-Dihydroxy-benzylamino)-pyridin-3-yl]-benzamide] | ++ |
| NC(=O)c1cccc(-c2cncc(Nc3cccc(Br)c3)c2)c1 [3-[5-(3-Bromo-phenylamino)-pyridin3-yl]-benzamide] | + |
| NC(=O)c1cccc(-c2cncc(NCc3cccc(Cl)c3)c2)c1 [3-[5-(3-Chloro-benzylamino)-pyridin-3-yl]-benzamide] | ++ |
| COc1ccc(CNc2cncc(-c3cccc(C(N)=O)c3)c2)cc1O [3-[5-(3-Hydroxy-4-methoxy-benzylamino)-pyridin-3-yl]-benzamide] | ++ |
| O=C(NCCO)c1cccc(-c2cncc(NCc3cccc(O)c3)c2)c1 [3-[5-(3-Hydroxy-benzylamino)-pyridin-3-yl]-N-(2-hydroxy-ethyl)-benzamide] | ++ |
| NC(=O)c1cccc(-c2cncc(NCc3cccc(O)c3)c2)c1 [3-[5-(3-Hydroxy-benzylamino)-pyridin-3-yl]-benzamide] | +++ |
| NC(=O)c1cccc(-c2cncc(Nc3cccc(O)c3)c2)c1 [3-[5-(3-Hydroxy-phenylamino)-pyridin-3-yl]-benzamide] | ++ |
| NC(=O)c1cccc(-c2cncc(NCc3cccc(OC(F)(F)F)c3)c2)c1 [3-[5-(3-Trifluoromethoxy-benzylamino)-pyridin-3-yl]-benzamide] | ++ |
| NC(=O)c1cccc(-c2cncc(NCc3ccc(Cl)c(F)c3)c2)c1 [3-[5-(4-Chloro-3-fluoro-benzylamino)-pyridin-3-yl]-benzamide] | ++ |
| NC(=O)c1cccc(-c2cncc(NCc3ccc(Cl)cc3)c2)c1 [3-[5-(4-Chloro-benzylamino)-pyridin-3-yl]-benzamide] | ++ |
| Oc1cccc(-c2cncc(Nc3ccc(Cl)cc3)c2)c1 [3-[5-(4-Chloro-phenylamino)-pyridin-3-yl]-phenol] | + |
| NC(=O)c1cccc(-c2cncc(NCc3ccc(O)cc3)c2)c1 [3-[5-(4-Hydroxy-benzylamino)-pyridin-3-yl]-benzamide] | ++ |
| COc1ccc(CNc2cncc(-c3cccc(C(N)=O)c3)c2)cc1 [3-[5-(4-Methoxy-benzylamino)-pyridin-3-yl]-benzamide] | + |

| SMILES | ROK activity |
| --- | --- |
| COc1ccc(Nc2cncc(-c3cccc(C(N)=O)c3)c2)cc1 [3-[5-(4-Methoxy-phenylamino)-pyridin-3-yl]-benzamide] | + |
| COc1ccc(Nc2cncc(-c3cccc(O)c3)c2)cc1 [3-[5-(4-Methoxy-phenylamino)-pyridin-3-yl]-phenol] | ++ |
| NC(=O)c1cccc(-c2cncc(NCC3CCCCC3)c2)c1 [3-[5-(Cyclohexylmethyl-amino)-pyridin-3-yl]-benzamide] | + |
| Oc1cccc(-c2cncc(Nc3ccc4ccccc4c3)c2)c1 [3-[5-(Naphthalen-2-ylamino)-pyridin-3-yl]-phenol] | + |
| Oc1cccc(CNc2cncc(-c3ccncc3Cl)c2)c1 [3-[(3′-Chloro-[3,4′]bipyridinyl-5-ylamino)-methyl]-phenol] | +++ |
| Oc1cccc(CNc2cncc(-c3ccc4c(c3)OCO4)c2)c1 [3-[(5-Benzo[1,3]dioxol-5-yl-pyridin-3-ylamino)-methyl]-phenol] | ++ |
| Oc1cccc(CNc2cncc(-c3cncc4ccccc34)c2)c1 [3-[(5-Isoquinolin-4-yl-pyridin-3-ylamino)-methyl]-phenol] | + |
| Oc1cccc(CNc2cncc(-c3ccccc3)c2)c1 [3-[(5-Phenyl-pyridin-3-ylamino)-methyl]-phenol] | + |
| Oc1cccc(CNc2cncc(-c3cccc4ncccc34)c2)c1 [3-[(5-Quinolin-5-yl-pyridin-3-ylamino)-methyl]-phenol] | +++ |
| COc1cncc(-c2cncc(NCc3cccc(O)c3)c2)c1 [3-[(5′-Methoxy-[3,3′]bipyridinyl-5-ylamino)-methyl]-phenol] | + |
| NC(=O)c1cccc(-c2cncc(NCc3ccc4c(c3)OCO4)c2)c1 [3-{5-[(Benzo[1,3]dioxol-5-ylmethyl)-amino]-pyridin-3-yl}-benzamide] | + |
| NC(=O)c1cccc(-c2cncc(NCc3ccoc3)c2)c1 [3-{5-[(Furan-3-ylmethyl)-amino]-pyridin-3-yl}-benzamide] | + |
| NC(=O)c1cccc(-c2cncc(NCc3cccnc3)c2)c1 [3-{5-[(Pyridin-3-ylmethyl)-amino]-pyridin-3-yl}-benzamide] | + |
| NC(=O)c1cccc(-c2cncc(NCC3CCCN3)c2)c1 (centres unmarked) [3-{5-[(Pyrrolidin-2-ylmethyl)-amino]-pyridin-3-yl}-benzamide] | + |
| Oc1cccc(CNc2cncc(-c3ccc4[nH]ccc4c3)c2)c1 [3-{[5-(1H-Indol-5-yl)-pyridin-3-ylamino]-methyl}-phenol] | + |
| Oc1cccc(CNc2cncc(-c3cc[nH]n3)c2)c1 [3-{[5-(1H-Pyrazol-3-yl)-pyridin-3-ylamino]-methyl}-phenol] | ++ |
| Nc1cccc(-c2cncc(NCc3cccc(O)c3)c2)c1 [3-{[5-(3-Amino-phenyl)-pyridin-3-ylamino]-methyl}-phenol] | + |
| OCc1cccc(-c2cncc(NCc3cccc(O)c3)c2)c1 [3-{[5-(3-Hydroxymethyl-phenyl)-pyridin-3-ylamino]-methyl}-phenol] | + |
| Nc1ccc(-c2cncc(NCc3cccc(O)c3)c2)cc1 [3-{[5-(4-Amino-phenyl)-pyridin-3-ylamino]-methyl}-phenol] | + |
| OCc1ccc(-c2cncc(NCc3cccc(O)c3)c2)cc1 [3-{[5-(4-Hydroxymethyl-phenyl)-pyridin-3-ylamino]-methyl}-phenol] | + |

| SMILES | ROK activity |
| --- | --- |
| Oc1ccc(-c2cnc(NCc3ccccc3)cn2)cc1 [4-(5-Benzylamino-pyrazin-2-yl)-phenol] | ++ |
| Nc1ccc(C(=O)Nc2ccc(Nc3cnc(-c4ccncc4Cl)cn3)cc2)cc1 [4-Amino-N-{4-[5-(3-chloro-pyridin-4-yl)-pyrazin-2-ylamino]-phenyl}-benzamide] | ++ |
| CC(Nc1cnc(-c2ccc(O)cc2)cn1)c1ccccc1 (centres unmarked) [4-[5-(1-Phenyl-ethylamino)-pyrazin-2-yl]-phenol] | ++ |
| Oc1ccc(-c2cnc(NCCc3ccncc3)cn2)cc1 [4-[5-(2-Pyridin-4-yl-ethylamino)-pyrazin-2-yl]-phenol] | + |
| Oc1ccc(-c2cncc(NCc3ccc(Cl)c(Cl)c3)c2)cc1 [4-[5-(3,4-Dichloro-benzylamino)-pyridin-3-yl]-phenol] | + |
| Oc1ccc(-c2cncc(NCc3ccc(F)c(F)c3)c2)cc1 [4-[5-(3,4-Difluoro-benzylamino)-pyridin-3-yl]-phenol] | ++ |
| COc1ccc(CNc2cncc(-c3ccc(O)cc3)c2)cc1OC [4-[5-(3,4-Dimethoxy-benzylamino)-pyridin-3-yl]-phenol] | + |
| Oc1ccc(-c2cnc(NCc3cccc(Cl)c3)cn2)cc1 [4-[5-(3-Chloro-benzylamino)-pyrazin-2-yl]-phenol] | + |
| Oc1ccc(-c2cncc(NCc3cccc(Cl)c3)c2)cc1 [4-[5-(3-Chloro-benzylamino)-pyridin-3-yl]-phenol] | ++ |
| NC(=O)c1ccc(-c2cncc(NCc3cccc(O)c3)c2)cc1 [4-[5-(3-Hydroxy-benzylamino)-pyridin-3-yl]-benzamide] | +++ |
| Oc1ccc(-c2cncc(Nc3cccc(O)c3)c2)cc1 [4-[5-(3-Hydroxy-phenylamino)-pyridin-3-yl]-phenol] | ++ |
| Oc1ccc(-c2cncc(NCc3cccc(OC(F)(F)F)c3)c2)cc1 [4-[5-(3-Trifluoromethoxy-benzylamino)-pyridin-3-yl]-phenol] | + |
| Oc1ccc(-c2cncc(NCc3ccc(Cl)cc3)c2)cc1 [4-[5-(4-Chloro-benzylamino)-pyridin-3-yl]-phenol] | ++ |
| COc1ccc(CNc2cncc(-c3ccc(O)cc3)c2)cc1 [4-[5-(4-Methoxy-benzylamino)-pyridin-3-yl]-phenol] | ++ |
| Oc1ccc(-c2cncc(NCC3CCCCC3)c2)cc1 [4-[5-(Cyclohexylmethyl-amino)-pyridin-3-yl]-phenol] | + |
| NS(=O)(=O)c1ccc(CNc2cnc(-c3ccncc3)cn2)cc1 [4-[(5-Pyridin-4-yl-pyrazin-2-ylamino)-methyl]-benzenesulfonamide] | ++ |
| CN(Cc1cccc(O)c1)c1cncc(-c2ccc(O)cc2)c1 [4-{5-[(3-hydroxy-benzyl)-methyl-amino]-pyridin-3-yl}-phenol] | + |
| Oc1ccc(-c2cncc(NCc3ccc4c(c3)OCO4)c2)cc1 [4-{5-[(Benzo[1,3]dioxol-5-ylmethyl)-amino]-pyridin-3-yl}-phenol] | ++ |
| Oc1ccc(-c2cncc(NCc3ccoc3)c2)cc1 [4-{5-[(Furan-3-ylmethyl)-amino]-pyridin-3-yl}-phenol] | ++ |
